One test deals with T1, ADRB2 (Homo sapiens, UniProt P07550).
T1 construct: to produce three, full length constructs encoding fusion proteins; expressed in transfected cells; host or cells: HEK-293T and clone 41 (HEK-293T derivative)
The test is described as follows: chemiluminescence β-galactosidase reporter assay, ADRB2-tTA + ARRB2-TEV-NIa protease, clone 41 cells. The format is cell-based. The following applies: ADRB2-tTA low efficiency cleavage site.

In test [1] the target is T2, human Type I Interferon Receptor (Homo sapiens, UniProt P17181+P48551).
T2 construct: expressed in transfected cells; host or cells: CHO-K1
T2 sequence (P17181 28-557): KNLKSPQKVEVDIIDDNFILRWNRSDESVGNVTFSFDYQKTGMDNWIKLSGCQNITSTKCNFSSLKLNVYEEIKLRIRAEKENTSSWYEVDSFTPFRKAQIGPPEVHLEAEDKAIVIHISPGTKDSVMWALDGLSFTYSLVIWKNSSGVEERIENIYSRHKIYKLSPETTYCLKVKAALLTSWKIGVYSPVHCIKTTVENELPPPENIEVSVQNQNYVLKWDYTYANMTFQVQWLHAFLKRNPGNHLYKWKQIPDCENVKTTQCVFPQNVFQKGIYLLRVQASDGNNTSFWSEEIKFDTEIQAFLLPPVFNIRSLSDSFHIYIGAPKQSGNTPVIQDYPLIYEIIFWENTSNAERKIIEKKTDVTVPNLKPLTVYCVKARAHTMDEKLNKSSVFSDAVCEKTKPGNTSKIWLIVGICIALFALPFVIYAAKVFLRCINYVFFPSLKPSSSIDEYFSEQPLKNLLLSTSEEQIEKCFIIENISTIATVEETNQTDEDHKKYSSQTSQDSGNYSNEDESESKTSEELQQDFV
T2 sequence (P48551 27-515): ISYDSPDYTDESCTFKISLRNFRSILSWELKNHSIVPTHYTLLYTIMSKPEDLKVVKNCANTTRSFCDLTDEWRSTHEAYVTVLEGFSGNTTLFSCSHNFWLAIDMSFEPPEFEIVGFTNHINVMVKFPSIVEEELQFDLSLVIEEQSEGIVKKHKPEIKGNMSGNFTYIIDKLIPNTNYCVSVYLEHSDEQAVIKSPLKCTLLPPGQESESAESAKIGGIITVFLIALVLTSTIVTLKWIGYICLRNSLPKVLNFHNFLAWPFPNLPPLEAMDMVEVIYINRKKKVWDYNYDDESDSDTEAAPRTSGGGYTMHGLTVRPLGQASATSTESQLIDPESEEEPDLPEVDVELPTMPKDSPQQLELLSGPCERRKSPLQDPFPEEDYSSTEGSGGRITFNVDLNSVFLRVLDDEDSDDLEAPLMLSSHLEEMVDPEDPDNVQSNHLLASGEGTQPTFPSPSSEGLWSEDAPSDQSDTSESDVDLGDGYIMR
The test is described as follows: IFNAR1-GAL4-NF-κB + IFNAR2.2-TEV luciferase reporter assay, CHO-K1 cells. The format is cell-based, hamster. The settings on record: control pcDNA3 plasmid.

T1 sequence (P07550 whole entry, the tested form may be a part): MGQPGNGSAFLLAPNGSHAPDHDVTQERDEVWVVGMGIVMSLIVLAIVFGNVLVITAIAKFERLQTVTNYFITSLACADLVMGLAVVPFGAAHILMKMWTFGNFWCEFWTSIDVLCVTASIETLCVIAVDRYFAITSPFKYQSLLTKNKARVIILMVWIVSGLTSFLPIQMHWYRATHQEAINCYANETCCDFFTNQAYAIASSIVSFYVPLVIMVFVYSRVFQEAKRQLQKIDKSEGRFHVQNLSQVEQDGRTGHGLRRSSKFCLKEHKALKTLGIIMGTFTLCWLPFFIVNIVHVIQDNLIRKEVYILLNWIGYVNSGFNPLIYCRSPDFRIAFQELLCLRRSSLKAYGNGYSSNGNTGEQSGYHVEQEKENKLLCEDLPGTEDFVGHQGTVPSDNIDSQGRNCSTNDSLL

As for `Nc1ncnc2c1ncn2[C@@H]1O[C@H](COP(=O)(O)OP(=O)(O)OP(=O)(O)O)[C@@H](O)[C@H]1O` [ATP], at ADRB2, the “induction of reporter gene activity by agonist of another GPCR (P2Y1, P2Y2)” value is “Stimulation of another GPCR pathway was irrelevant”. For IFN-α, the “effect on reporter gene activity in cells transfected with the reporter and control plasmids” value in test [1] was “no effect”.

The values are drawn from patent US8017398B2, “Method for assaying protein-protein interaction” (Life Technologies Corporation, priority 2003, dated 2011).
